In assay [1] the test system is corticostriatal glutamate release. The settings on record: rats, local application, ref [64]; cited from earlier work.
The target in assay [2] is T1, A1R^wt (Homo sapiens, UniProt P30542).
T1 sequence (P30542 1-326): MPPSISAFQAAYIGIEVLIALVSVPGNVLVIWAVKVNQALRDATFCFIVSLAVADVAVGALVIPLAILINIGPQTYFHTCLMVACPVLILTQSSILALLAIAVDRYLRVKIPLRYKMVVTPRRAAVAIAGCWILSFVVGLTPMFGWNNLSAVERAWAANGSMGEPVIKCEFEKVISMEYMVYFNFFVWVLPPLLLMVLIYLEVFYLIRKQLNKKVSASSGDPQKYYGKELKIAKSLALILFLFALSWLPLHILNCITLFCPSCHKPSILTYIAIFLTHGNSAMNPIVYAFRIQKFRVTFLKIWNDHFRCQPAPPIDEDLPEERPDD
The format is binding. To be noted: saturating concentration of DPCPX (1 µM).

For assay [3], the target named is T2, A1R^G279S (Homo sapiens, UniProt P30542, G279S).
T2 sequence (P30542 1-326 G279S): T1 sequence (P30542 1-326) with G279S
Type of assay: binding. The settings on record: saturating concentration of DPCPX (1 µM).

Assay [4] concerns the target T2, A1R^G279S. The settings on record: CPA 200 nM.
The target in assay [5] is T1, A1R^wt. To be noted: CPA 200 nM.

We go through three molecules from PMC11969171 (Biomedicine & pharmacotherapy = Biomedecine & …, 2022).

Where a chain is given by its changes, count along the chain named.

On to `OCCN(CCO)c1nc(N2CCCCC2)c2nc(N(CCO)CCO)nc(N3CCCCC3)c2n1` [dipyridamole], for which the “basal and optogenetic-induced corticostriatal glutamate release” value in assay [1] was “significant decrease”.
Regarding `CCCn1c(=O)c2[nH]c(C3CCCC3)nc2n(CCC)c1=O` [DPCPX, 8-cyclopentyl-1,3-dipropylxanthine], the “displacement of CA200634 binding” value in assay [2] and in assay [3] was “displaced” each time.
As for `OC[C@H]1O[C@@H](n2cnc3c(NC4CCCC4)ncnc32)[C@H](O)[C@@H]1O` [CPA, N6-cyclopentyladenosine], the “functional coupling to Gα12/13, Gαs, β-arrestin2 or GRK2” value in assay [4] and in assay [5] was “No functional coupling” throughout. Moreover, in assay [5] (Gαi-LgBiT or Gαq-LgBiT, decline to basal after 1 h), the “time to peak of NL-generated signal” value stood at 10 min.
